Patent publication US20220105058A1, “USE OF 3-O-SULFAMATE-16,16-DIMETHYL-D-HOMOEQUILENIN TO TREAT ONCOLOGICAL DISEASES” (priority 2018, published 2022)

Assays:
[1] = second class: low solubility and high permeability; first class: high solubility and high permeability; cited from earlier work
[2] = release of free hormone; cited from earlier work
[3] = tested on: triple negative breast cancer MDA-MB-231 cell line; assay: cell proliferation in MDA-MB-231; format: cell-based

| Compound | class according to the biopharmaceutical classification system (BCS) [1] | also measured |
| --- | --- | --- |
| CC(C)(C#N)c1cc(Cn2cncn2)cc(C(C)(C)C#N)c1 [anastrazole] | first class | – |
| C[C@]12CC[C@@H]3c4ccc(OS(N)(=O)=O)cc4CC[C@H]3[C@@H]1CCC2=O [estrone sulfamate] | – | uterotropic activity [2]: strong uterotropic activity |
| COc1cc([C@@H]2c3cc4c(cc3[C@@H](O[C@@H]3O[C@@H]5CO[C@@H](C)O[C@H]5[C@H](O)[C@H]3O)[C@H]3COC(=O)[C@H]23)OCO4)cc(OC)c1O [etoposide, reference compound] | – | inhibition of cell proliferation [3]: similar |
| N#Cc1ccc(C(c2ccc(C#N)cc2)n2cncn2)cc1 [letrozole] | first class | – |
